These are literature values, as cited in patent publication US20130220225A1, “BAITING METHOD AND COMPOSITION” (priority 2008, published 2013).

SMILES strings stand for the structures. Where two headings read alike, the source gives them in different places.

The LD50 is the dose at which mortality reaches 50%.

In series [1] the test system is Cat (Fellis libyca domestica). As to conditions: Oral.
Series [2] concerns Coyote (Canis latrans). The settings on record: Oral.
Series [3] concerns Stoats (Mustela erminea). As to conditions: Oral.
Series [4] deals with Bobcat (Lynx rufus). The settings on record: Oral.
The subject of series [5] is Fox (kit) (Vulpes velox). The settings on record: Oral.
Series [6] has as its system Ferret (Mustela putoris furo). The settings on record: Oral.
The subject of series [7] is Mallard (duck) (Anas platyrhrynchos). The settings on record: Oral.
The test system of series [8] is Eagle (Aquila chrysaetos). The settings on record: Oral.
Series [9] concerns Tammar wallaby (Macropus eugenii). As to conditions: Oral.
Series [10] relates to Badger (Nth Am.) (Taxidea taxus). As to conditions: Oral.
Series [11] has as its system Blackbird (red-wing) (Agelaius phoenicus). As to conditions: Oral.
For series [12], the system named is Raccoon (Procyon lotor). The settings on record: Oral.
Series [13] deals with Mouse (Mus domesticus).
For series [14], the system named is Rat (male) (Rattus norvegicus). As to conditions: Oral.
For series [15], the system named is Magpie (black-billed) (Pica pica). As to conditions: Oral.
For series [16], the system named is Crow (Corvus brachyrhynchos). The settings on record: Oral.
For series [17], the system named is Starling (Sturnus vulgaris). As to conditions: Oral.
In series [18] the test system is Quail (Coturnix coturnix). The settings on record: Oral.
Series [19] concerns Skunk (Mephitis mephitis). As to conditions: Oral.
Series [20] deals with Brushtail Possum (Trichosaurus vulpecula). The settings on record: Oral.
Series [21] relates to Guinea pig (female) (Cavellio porcinus). As to conditions: Oral.

Consider `CCC(=O)c1ccc(N)cc1` [p-aminopropiophenone], for which the LD50 was 5.6 mg/kg in [1]; 5.6 mg/kg in series [2]; 9.3 mg/kg in [3]; 10 mg/kg in series [4]; 14.1 mg/kg in series [5]; 29 mg/kg in series [6]. Besides, the LD50 was 38 mg/kg in series [7]; more than 50 mg/kg in series [8]; 89 mg/kg in [9]; 100 mg/kg in [10]; 133 mg/kg in series [11]; 142 mg/kg in [12]. Besides, the LD50 in series [13] (Mouse (female), I.V.) was 200 mg/kg; in [13] (Mouse (female), Oral) it was >5,000 mg kg^−1; in series [13] (Mouse (male), I.V.), 145 mg/kg; in series [13] (Mouse (sex not given), Oral) it was 233 mg/kg; in series [14], 177 mg/kg; in [15], 178 mg/kg. The LD50 in [16] was more than 178 mg/kg; in series [17], more than 316 mg/kg; in [18] it was more than 316 mg/kg; in [19], more than 400 mg/kg; in series [20] it was 500 mg/kg; in [21], 1020 mg/kg.
